In ChEMBL document CHEMBL5032529, “Synthesis and evaluation of tetrahydroisoquinoline derivatives against Trypanosoma brucei rhodesiense” (Eur J Med Chem, 2021):

Tests used:
[1] = system: Trypanosoma brucei rhodesiense; assay: Antitrypanosomal activity against Trypanosoma brucei rhodesiense STIB900 assessed as parasite growth inhibition measured after 72 hrs by alamar blue dye based spectrofluorimetric analysis; format: functional, organism-based; details: STIB900, 72 h
Vero = assay: Cytotoxicity against African green monkey Vero cells assessed as reduction in cell viability measured after 72 hrs by SRB assay; format: cell-based; details: Chlorocebus sabaeus
[2] = Selectivity index, ratio of IC50 for cytotoxicity against African green monkey Vero cells to IC50 for antitrypanosomal activity against Trypanosoma brucei rhodesiense STI B900; format: toxicity, cell-based; details: read-out: Ratio IC50

Row | Structure (SMILES) | IC50 [1] [µM] | IC50 (Vero) [µM] | selectivity ratio [2]
1 | CC1(C)N=C(N)N=C(N)N1OCCCOc1cc(Cl)c(Cl)cc1Cl | 0.25 | > 10 | > 40
2 | CN1Cc2ccc(OCc3ccccc3)cc2[C@@H](OCc2ccccc2)C1 | 2.8 | 23.5 | 8.4
3 | Oc1cccc2c1CNCC2O (stereo not drawn) | > 100 | > 100 | 
4 | CN1Cc2ccc(OCCCn3ccnc3[N+](=O)[O-])cc2[C@@H](O)C1 | 21.7 | > 50 | > 2.3
5 | CN1Cc2ccc(OCc3ccc(Oc4ccc(F)cc4)cc3)cc2[C@@H](O)C1 | 2.7 | 5.6 | 2.1
6 | CN1CCc2cc(OCc3ccc(-c4ccccc4)cc3)ccc2C1 | 2.3 | 16.5 | 7.2
7 | COc1cccc2c1CN(C)C[C@@H]2O | > 100 | > 100 | 
8 | CCN1Cc2ccc(O)cc2C(O)C1 (stereo not drawn) | > 100 | > 100 | 
9 | CN1CCc2cc(OCc3ccccc3)ccc2C1 | 4.4 | > 100 | > 22.7
10 | CN1CCc2cc(Oc3ccccc3)ccc2C1 | 19.8 | > 100 | > 5.7
11 | COc1ccc(COc2ccc3c(c2)[C@@H](O)CN(C)C3)cc1 | 17.5 | > 50 | > 2.9
12 | CN1Cc2ccc(O)cc2[C@@H](OCc2ccc(-c3ccccc3)cc2)C1 | 6.4 | > 50 | > 7.8
13 | CN1Cc2ccc(OCc3ccccc3)cc2[C@@H](O)C1 | 25.6 | > 100 | > 3.9
14 | CN1Cc2ccc(OCc3ccc(Oc4ccccc4)cc3)cc2[C@@H](O)C1 | 2.7 | 3.4 | 1.3
15 | Cc1ccccc1COc1ccc2c(c1)[C@@H](O)CN(C)C2 | 20.7 | > 100 | > 4.8
16 | CN1Cc2ccc(O)cc2[C@@H](OCCC2CCCCC2)C1 | 19.1 | > 50 | > 2.6
17 | Oc1ccc2c(c1)C(O)CNC2 (stereo not drawn) | > 100 | > 100 | 
18 | CN1Cc2ccc(OCc3ccc(Br)cc3)cc2[C@@H](O)C1 | 2.5 | 37 | 14.8
19 | CN1Cc2ccc(OCCC3CCCCC3)cc2[C@@H](O)C1 | 2.5 | > 50 | > 20
20 | COc1cccc(-c2cccc(COc3ccc4c(c3)[C@@H](O)CN(C)C4)c2)c1 | 2.9 | 24.3 | 8.4
21 | CN1CCc2cc(-c3ccc(-c4ccccc4)cc3)ccc2C1 | 0.27 | 15.6 | 57.8

Row | Structure (SMILES) | IC50 [1] [µM] | IC50 (Vero) [µM] | selectivity ratio [2]
22 | CN(C)CCOc1ccc2c(c1)[C@@H](O)CN(C)C2 | > 50 | > 50 | 
23 | CN1CCc2cc(OCCC3CCCCC3)ccc2C1 | 2.9 | 25 | 8.6
24 | CN1Cc2ccc(OCc3ccc(-c4ccc5ccccc5c4)cc3)cc2[C@@H](O)C1 | 0.24 | 0.31 | 1.3
25 | CN1Cc2ccc(OCc3ccc([N+](=O)[O-])cc3)cc2[C@@H](O)C1 | 16.9 | > 50 | > 3
26 | CN1Cc2ccc(OCc3cccc(Br)c3)cc2[C@@H](O)C1 | 2.2 | 60.3 | 27.4
27 | CN1Cc2ccc(OCCCN3CCOCC3)cc2[C@@H](O)C1 | 27.6 | > 50 | > 1.8
28 | CCCCCCCCCCCCOc1ccc2c(c1)[C@@H](O)CN(C)C2 | 2.4 | 18.3 | 7.6
29 | CN1Cc2ccc(O)cc2[C@@H](OCc2ccccc2)C1 | > 50 | > 50 | 
30 | CN1Cc2ccc(OCCCc3ccccc3)cc2[C@@H](O)C1 | 18.7 | > 50 | > 2.7
31 | CN1Cc2ccc(OCCc3ccccc3)cc2[C@@H](O)C1 | 17.9 | > 50 | > 2.8
32 | CN1Cc2ccc(OCC3CCNCC3)cc2[C@@H](O)C1 | > 100 | > 100 | 
33 | CN1Cc2ccc(OCCCn3cnc([N+](=O)[O-])c3)cc2[C@@H](O)C1 | > 50 | > 50 | 
34 | CN1Cc2ccc(OCCCN3CCNCC3)cc2[C@@H](O)C1 | > 100 | > 100 | 
35 | CCCN1Cc2ccc(O)cc2C(O)C1 (stereo not drawn) | > 100 | > 100 | 
36 | CN1Cc2c(O)cccc2[C@@H](O)C1 | > 100 | > 100 | 
37 | CN1Cc2ccc(OCc3cccc(-c4ccc(Cl)cc4)c3)cc2[C@@H](O)C1 | 2.9 | 27.3 | 9.4
38 | CN1Cc2ccc(OCc3ccc(-c4cccc(Cl)c4)cc3)cc2[C@@H](O)C1 | 2.8 | 25.5 | 9.1
39 | CCCCCCCCCCCC1c2ccc(O)cc2[C@@H](O)CN1C (stereo partly drawn) | 0.39 |  | 
40 | OC1CCCc2ccc(OCc3ccc(-c4ccccc4)cc3)cc21 (stereo not drawn) | > 100 | > 100 | 
41 | CN1CCc2cc(OCCCN3CCOCC3)ccc2C1 | 25.9 | > 50 | > 1.9
42 | CN1Cc2ccc(OC(c3ccccc3)(c3ccccc3)c3ccccc3)cc2[C@@H](O)C1 | 20.8 | 87.9 | 4.2

Row | Structure (SMILES) | IC50 [1] [µM] | IC50 (Vero) [µM] | selectivity ratio [2]
43 | CN1CCc2cc(-c3ccc4ccccc4c3)ccc2C1 | 2.7 | 24.1 | 8.9
44 | COc1cccc(-c2ccc(COc3ccc4c(c3)[C@@H](O)CN(C)C4)cc2)c1 | 2.8 | 10.8 | 3.9
45 | COCCOCOc1ccc2c(c1)[C@@H](O)CN(C)C2 | > 50 | > 50 | 
46 | COc1ccc2c(c1)[C@@H](O)CN(C)C2 | > 100 | > 100 | 
47 | Oc1ccc2c(c1)C(O)CCC2 (stereo not drawn) | > 100 | > 100 | 
48 | Cc1cccc(COc2ccc3c(c2)[C@@H](O)CN(C)C3)c1 | 20.3 | > 50 | > 2.5
49 | CN1Cc2ccc(O[Si](c3ccccc3)(c3ccccc3)C(C)(C)C)cc2[C@@H](O)C1 | 2.8 | 19.1 | 6.8
50 | CN1Cc2ccc(OCc3cccnc3)cc2[C@@H](O)C1 | > 50 | > 50 | 
51 | CN1Cc2ccc(OCc3ccc(-c4ccccc4)cc3)cc2[C@@H](O)C1 | 2.9 | 23 | 7.9
52 | CN1Cc2ccc(OCC3CCCCC3)cc2[C@@H](O)C1 | 2.8 | 65.6 | 23.4
53 | CN1Cc2ccc(OCc3ccc(-c4ccccc4)cc3)cc2[C@@H](OCc2ccc(-c3ccccc3)cc2)C1 | 2.8 | > 10 | > 3.6
54 | CN1CCc2cc(-c3ccccc3)ccc2C1 | 3 | > 50 | > 16.7
55 | CN1Cc2ccc(OCCOc3ccccc3)cc2[C@@H](O)C1 | 17.9 | > 100 | > 5.6
56 | CN1CCc2cc(O)ccc2C1 | > 100 | > 100 | 
57 | CN1Cc2ccc(OCc3ccc(-c4ccc(Cl)cc4)cc3)cc2[C@@H](O)C1 | 0.28 | 21.7 | 77.5
58 | CN1Cc2ccc(OCCC3CCCCC3)cc2[C@@H](OCCC2CCCCC2)C1 | 2.3 | 23.6 | 10.3
59 | CN1Cc2ccc(OCc3ccc(-c4ccc(-c5ccccc5)cc4)cc3)cc2[C@@H](O)C1 | 0.28 | 0.28 | 1
60 | CN1Cc2ccc(OCc3ccc(-c4ccc(F)cc4)cc3)cc2[C@@H](O)C1 | 1.4 | 33.8 | 24.1
61 | Cc1c2ccncc2c(C)c2c1[nH]c1ccccc12 [ELLIPTECINE] |  | 2.4 | 
62 | N=C(N)c1ccc(OCCCCCOc2ccc(C(=N)N)cc2)cc1 [PENTAMIDINE] | 0.00707 |  | 
